Measurements from ChEMBL document CHEMBL4387741, “Optimization of novel reversible Bruton's tyrosine kinase inhibitors identified using Tethering-fragment-based screens” (Bioorg Med Chem, 2019).

What was measured:
[1] = molecular target: Serine/threonine-protein kinase OSR1 (Homo sapiens) (UniProt O95747); test: Inhibition of wild-type human full length OSR1 (M1 to S527 residues) expressed in mammalian expression system at 1 uM by Kinomescan method relative to control
[2] = molecular target: Serine/threonine-protein kinase Nek1 (Homo sapiens) (UniProt Q96PY6); test: Inhibition of wild-type human partial length NEK1 (M1 to K278 residues) expressed in bacterial expression system at 1 uM by Kinomescan method relative to control
[3] = molecular target: Serine/threonine-protein kinase 26 (Homo sapiens) (UniProt Q9P289); test: Inhibition of wild-type human full length MST4 (M1 to P416 residues) expressed in mammalian expression system at 1 uM by Kinomescan method relative to control
[4] = molecular target: Tyrosine-protein kinase Srms (Homo sapiens) (UniProt Q9H3Y6); test: Inhibition of wild-type human partial length SRMS (L208 to P488 residues) expressed in mammalian expression system at 1 uM by Kinomescan method relative to control
[5] = molecular target: Tyrosine-protein kinase Lck (Homo sapiens) (UniProt P06239); test: Inhibition of wild-type human partial length LCK (R207 to P509 residues) expressed in bacterial expression system at 1 uM by Kinomescan method relative to control
[6] = molecular target: Ephrin type-B receptor 4 (Homo sapiens) (UniProt P54760); test: Inhibition of wild-type human partial length EPHB4 (H585 to G892 residues) expressed in bacterial expression system at 1 uM by Kinomescan method relative to control
[7] = tested on: Leucine-rich repeat serine/threonine-protein kinase 2 (Homo sapiens), Q5S007 [G2019S]; test: Inhibition of human partial length LRRK2 G2019S mutant (H970 to E2527 residues) expressed in mammalian expression system at 1 uM by Kinomescan method relative to control
[8] = molecular target: SNF-related serine/threonine-protein kinase (Homo sapiens) (UniProt Q9NRH2); test: Inhibition of wild-type human partial length SNRK (M1 to E339 residues) expressed in mammalian expression system at 1 uM by Kinomescan method relative to control
[9] = molecular target: Dual specificity tyrosine-phosphorylation-regulated kinase 2 (Homo sapiens) (UniProt Q92630); test: Inhibition of wild-type human full length DYRK2 (M1 to S528 residues) expressed in mammalian expression system at 1 uM by Kinomescan method relative to control
[10] = molecular target: RAF proto-oncogene serine/threonine-protein kinase (Homo sapiens) (UniProt P04049); test: Inhibition of wild-type human partial length RAF1 (I330 to T640 residues) expressed in bacterial expression system at 1 uM by Kinomescan method relative to control
[11] = molecular target: Ephrin type-B receptor 6 (Homo sapiens) (UniProt O15197); test: Inhibition of wild-type human partial length EPHB6 (Q634 to P948 residues) expressed in mammalian expression system at 1 uM by Kinomescan method relative to control
[12] = molecular target: Serine/threonine-protein kinase NIM1 (Homo sapiens) (UniProt Q8IY84); test: Inhibition of wild-type human partial length NIM1 (Q44 to N355 residues) expressed in mammalian expression system at 1 uM by Kinomescan method relative to control
[13] = molecular target: Serine/threonine-protein kinase 17A (Homo sapiens) (UniProt Q9UEE5); test: Inhibition of wild-type human partial length DRAK1 (R32 to E363 residues) expressed in bacterial expression system at 1 uM by Kinomescan method relative to control
[14] = molecular target: Tyrosine-protein kinase BTK (Homo sapiens, UniProt Q06187); test: Inhibition of BTK in human PBMC assessed as reduction in CD69 expression
[15] = molecular target: Mitotic checkpoint serine/threonine-protein kinase BUB1 (Homo sapiens) (UniProt O43683); test: Inhibition of wild-type human partial length BUB1 (Q724 to K1085 residues) expressed in mammalian expression system at 1 uM by Kinomescan method relative to control
[16] = tested on: Tyrosine-protein kinase ABL1 (Homo sapiens), P00519 [M351T]; test: Inhibition of human phosphorylated ABL1 M351T mutant (S229 to K512 residues) expressed in mammalian expression system at 1 uM by Kinomescan method relative to control
[17] = molecular target: Phosphatidylinositol 4-phosphate 5-kinase type-1 gamma (Homo sapiens) (UniProt O60331); test: Inhibition of wild-type human partial length PIP5K1C (M1 to T668 residues) expressed in mammalian expression system at 1 uM by Kinomescan method relative to control
[18] = molecular target: Myosin-IIIb (Homo sapiens) (UniProt Q8WXR4); test: Inhibition of wild-type human partial length MYO3B (M1 to D357 residues) expressed in bacterial expression system at 1 uM by Kinomescan method relative to control
[19] = molecular target: Tyrosine-protein kinase ITK/TSK (Homo sapiens) (UniProt Q08881); test: Inhibition of wild-type human partial length ITK (R335 to L620 residues) expressed in bacterial expression system at 1 uM by Kinomescan method relative to control
[20] = tested on: Phosphatidylinositol 4,5-bisphosphate 3-kinase catalytic subunit alpha isoform (Homo sapiens), P42336 [H1047Y]; test: Inhibition of human partial length PIK3CA H1047Y mutant (R108 to N1068 residues) expressed in mammalian expression system at 1 uM by Kinomescan method relative to control
[21] = molecular target: Cyclin-dependent kinase 8 (Homo sapiens) (UniProt P49336); test: Inhibition of wild-type human partial length CDK8 (M1 to T360 residues) expressed in bacterial expression system at 10 uM by Kinomescan method relative to control
[22] = molecular target: Cyclin-dependent kinase 18 (Homo sapiens) (UniProt Q07002); test: Inhibition of wild-type human full length PCTK3 (M3 to F474 residues) expressed in bacterial expression system at 10 uM by Kinomescan method relative to control
[23] = molecular target: Serine/threonine-protein kinase MRCK alpha (Homo sapiens) (UniProt Q5VT25); test: Inhibition of wild-type human partial length MRCKA (L57 to V418 residues) expressed in bacterial expression system at 10 uM by Kinomescan method relative to control
[24] = tested on: Mast/stem cell growth factor receptor Kit (Homo sapiens), P10721 [D816H]; test: Inhibition of human partial length KIT D816H mutant (I571 to D952 residues) expressed in mammalian expression system at 10 uM by Kinomescan method relative to control
[25] = tested on: Receptor-type tyrosine-protein kinase FLT3 (Homo sapiens), P36888 [N841I]; test: Inhibition of human partial length FLT3 N841I mutant (V592 to Y969 residues) expressed in bacterial expression system at 10 uM by Kinomescan method relative to control
[26] = molecular target: Mitogen-activated protein kinase kinase kinase 14 (Homo sapiens) (UniProt Q99558); test: Inhibition of wild-type human partial length NIK (L318 to P947 residues) expressed in mammalian expression system at 10 uM by Kinomescan method relative to control
[27] = molecular target: Serine/threonine-protein kinase 32C (Homo sapiens) (UniProt Q86UX6); test: Inhibition of wild-type human partial length YANK3 (M68 to G486 residues) expressed in bacterial expression system at 10 uM by Kinomescan method relative to control

Phosphatidylinositol 4,5-bisphosphate 3-kinase catalytic subunit alpha isoform (Homo sapiens), P42336 [H1047Y], sequence (P42336 whole entry H1047Y, the tested form may be a part, canonical isoform): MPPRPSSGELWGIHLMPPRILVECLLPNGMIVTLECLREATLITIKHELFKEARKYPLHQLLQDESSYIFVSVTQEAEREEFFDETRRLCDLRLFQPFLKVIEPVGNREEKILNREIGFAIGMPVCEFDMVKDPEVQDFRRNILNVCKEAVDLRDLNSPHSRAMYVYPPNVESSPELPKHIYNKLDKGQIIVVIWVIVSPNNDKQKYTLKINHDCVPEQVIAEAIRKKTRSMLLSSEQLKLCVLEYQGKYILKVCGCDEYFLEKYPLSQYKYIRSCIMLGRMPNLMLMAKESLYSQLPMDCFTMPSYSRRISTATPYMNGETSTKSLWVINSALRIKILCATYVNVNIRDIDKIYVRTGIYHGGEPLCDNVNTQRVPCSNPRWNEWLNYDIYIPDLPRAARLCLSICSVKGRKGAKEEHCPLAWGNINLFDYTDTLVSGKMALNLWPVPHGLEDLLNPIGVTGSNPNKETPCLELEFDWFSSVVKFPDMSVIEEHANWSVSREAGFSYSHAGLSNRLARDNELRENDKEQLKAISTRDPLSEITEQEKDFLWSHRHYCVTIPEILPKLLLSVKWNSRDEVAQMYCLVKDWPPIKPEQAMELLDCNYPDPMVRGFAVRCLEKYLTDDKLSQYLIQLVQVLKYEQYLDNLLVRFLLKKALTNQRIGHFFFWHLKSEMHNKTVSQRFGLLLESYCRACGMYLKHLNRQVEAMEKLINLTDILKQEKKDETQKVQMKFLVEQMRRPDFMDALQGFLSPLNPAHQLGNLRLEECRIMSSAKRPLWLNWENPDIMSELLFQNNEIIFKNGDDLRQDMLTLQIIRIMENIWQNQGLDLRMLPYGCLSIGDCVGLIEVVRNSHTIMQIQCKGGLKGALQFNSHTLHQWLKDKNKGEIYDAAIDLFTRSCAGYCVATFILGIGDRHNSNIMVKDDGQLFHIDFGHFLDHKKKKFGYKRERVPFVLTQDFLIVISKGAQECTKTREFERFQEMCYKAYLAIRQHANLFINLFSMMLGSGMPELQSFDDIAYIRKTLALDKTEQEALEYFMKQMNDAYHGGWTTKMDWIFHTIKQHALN
Ephrin type-B receptor 6 (Homo sapiens), sequence (O15197 whole entry, the tested form may be a part): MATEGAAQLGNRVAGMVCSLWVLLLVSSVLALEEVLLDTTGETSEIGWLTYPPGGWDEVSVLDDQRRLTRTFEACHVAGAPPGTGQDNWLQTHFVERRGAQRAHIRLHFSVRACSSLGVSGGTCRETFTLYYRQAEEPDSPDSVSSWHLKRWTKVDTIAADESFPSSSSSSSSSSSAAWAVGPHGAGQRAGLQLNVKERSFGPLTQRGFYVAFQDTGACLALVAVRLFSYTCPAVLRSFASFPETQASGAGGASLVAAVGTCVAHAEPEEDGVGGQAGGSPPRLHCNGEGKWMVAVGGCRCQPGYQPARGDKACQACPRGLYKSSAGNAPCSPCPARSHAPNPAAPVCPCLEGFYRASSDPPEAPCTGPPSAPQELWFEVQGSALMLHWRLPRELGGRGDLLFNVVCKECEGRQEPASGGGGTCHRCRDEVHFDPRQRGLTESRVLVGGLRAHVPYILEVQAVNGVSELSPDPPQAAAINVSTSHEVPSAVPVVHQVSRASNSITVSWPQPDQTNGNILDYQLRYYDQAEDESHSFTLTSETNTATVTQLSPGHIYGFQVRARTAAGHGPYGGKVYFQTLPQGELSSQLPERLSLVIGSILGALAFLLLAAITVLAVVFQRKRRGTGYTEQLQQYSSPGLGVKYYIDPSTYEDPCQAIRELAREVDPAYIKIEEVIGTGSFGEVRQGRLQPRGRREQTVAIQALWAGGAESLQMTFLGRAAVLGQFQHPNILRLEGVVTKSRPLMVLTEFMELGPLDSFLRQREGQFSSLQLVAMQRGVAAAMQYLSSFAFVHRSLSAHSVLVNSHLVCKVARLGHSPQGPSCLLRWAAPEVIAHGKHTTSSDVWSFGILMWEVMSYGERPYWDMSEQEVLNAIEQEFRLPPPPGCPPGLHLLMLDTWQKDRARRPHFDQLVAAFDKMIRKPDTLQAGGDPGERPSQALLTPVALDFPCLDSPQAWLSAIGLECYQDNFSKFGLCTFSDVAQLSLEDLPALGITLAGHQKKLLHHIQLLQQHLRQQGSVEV
Serine/threonine-protein kinase MRCK alpha (Homo sapiens), sequence (Q5VT25 whole entry, the tested form may be a part): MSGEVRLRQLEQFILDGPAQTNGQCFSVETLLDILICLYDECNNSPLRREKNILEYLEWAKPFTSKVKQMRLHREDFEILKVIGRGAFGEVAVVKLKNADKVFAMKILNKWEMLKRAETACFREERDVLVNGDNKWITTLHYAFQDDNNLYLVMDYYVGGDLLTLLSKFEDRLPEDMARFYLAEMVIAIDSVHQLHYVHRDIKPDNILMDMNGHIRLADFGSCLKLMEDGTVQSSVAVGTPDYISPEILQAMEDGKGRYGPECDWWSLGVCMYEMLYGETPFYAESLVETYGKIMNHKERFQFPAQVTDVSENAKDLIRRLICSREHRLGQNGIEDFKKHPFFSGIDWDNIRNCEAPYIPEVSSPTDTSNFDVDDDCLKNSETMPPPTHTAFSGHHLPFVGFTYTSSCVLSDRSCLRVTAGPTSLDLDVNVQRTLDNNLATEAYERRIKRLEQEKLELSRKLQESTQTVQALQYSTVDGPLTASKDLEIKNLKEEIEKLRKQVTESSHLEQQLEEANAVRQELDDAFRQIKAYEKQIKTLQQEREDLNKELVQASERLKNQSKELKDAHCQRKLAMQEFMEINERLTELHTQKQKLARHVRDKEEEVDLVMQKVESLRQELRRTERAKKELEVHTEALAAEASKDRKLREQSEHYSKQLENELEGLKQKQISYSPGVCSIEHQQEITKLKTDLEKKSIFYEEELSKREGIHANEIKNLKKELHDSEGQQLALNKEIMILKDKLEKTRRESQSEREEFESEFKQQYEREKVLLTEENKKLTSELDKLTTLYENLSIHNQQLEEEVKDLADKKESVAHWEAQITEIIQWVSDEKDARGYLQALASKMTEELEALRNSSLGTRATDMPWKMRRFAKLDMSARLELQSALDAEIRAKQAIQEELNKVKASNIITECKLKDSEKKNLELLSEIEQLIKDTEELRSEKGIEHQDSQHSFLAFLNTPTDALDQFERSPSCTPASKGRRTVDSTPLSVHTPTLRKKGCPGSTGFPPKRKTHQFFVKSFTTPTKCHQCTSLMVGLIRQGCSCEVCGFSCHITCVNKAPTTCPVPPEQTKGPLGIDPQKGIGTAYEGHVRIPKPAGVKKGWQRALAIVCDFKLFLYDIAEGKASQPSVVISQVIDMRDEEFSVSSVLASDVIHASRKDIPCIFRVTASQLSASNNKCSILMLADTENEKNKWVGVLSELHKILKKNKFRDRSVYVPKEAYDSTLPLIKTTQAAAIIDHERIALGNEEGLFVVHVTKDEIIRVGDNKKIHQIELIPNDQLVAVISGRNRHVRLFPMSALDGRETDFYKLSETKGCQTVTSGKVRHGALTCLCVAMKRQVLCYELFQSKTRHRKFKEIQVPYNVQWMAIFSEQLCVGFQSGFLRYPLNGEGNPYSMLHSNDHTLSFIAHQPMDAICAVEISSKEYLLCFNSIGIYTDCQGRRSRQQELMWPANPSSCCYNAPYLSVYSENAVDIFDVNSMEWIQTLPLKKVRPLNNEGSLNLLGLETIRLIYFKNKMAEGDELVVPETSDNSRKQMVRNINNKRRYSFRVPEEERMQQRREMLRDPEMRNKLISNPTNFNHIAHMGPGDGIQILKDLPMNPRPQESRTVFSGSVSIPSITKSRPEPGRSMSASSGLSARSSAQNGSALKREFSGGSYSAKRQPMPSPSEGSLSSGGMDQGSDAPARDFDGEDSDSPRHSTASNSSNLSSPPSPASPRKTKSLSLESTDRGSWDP
Cyclin-dependent kinase 8 (Homo sapiens), sequence (P49336 whole entry, the tested form may be a part): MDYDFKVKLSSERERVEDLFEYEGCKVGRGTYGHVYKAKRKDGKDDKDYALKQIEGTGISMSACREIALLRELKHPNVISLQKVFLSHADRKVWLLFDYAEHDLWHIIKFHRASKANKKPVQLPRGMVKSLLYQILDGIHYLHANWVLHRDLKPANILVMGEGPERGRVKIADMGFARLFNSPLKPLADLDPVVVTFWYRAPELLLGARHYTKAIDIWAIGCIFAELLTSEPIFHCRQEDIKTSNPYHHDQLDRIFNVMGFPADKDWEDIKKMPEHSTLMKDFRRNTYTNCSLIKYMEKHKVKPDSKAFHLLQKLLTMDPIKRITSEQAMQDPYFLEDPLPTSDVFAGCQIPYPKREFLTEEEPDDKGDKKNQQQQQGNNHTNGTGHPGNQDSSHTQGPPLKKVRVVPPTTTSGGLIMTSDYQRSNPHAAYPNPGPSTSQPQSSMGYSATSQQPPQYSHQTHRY
Tyrosine-protein kinase ITK/TSK (Homo sapiens), sequence (Q08881 whole entry, the tested form may be a part, canonical isoform): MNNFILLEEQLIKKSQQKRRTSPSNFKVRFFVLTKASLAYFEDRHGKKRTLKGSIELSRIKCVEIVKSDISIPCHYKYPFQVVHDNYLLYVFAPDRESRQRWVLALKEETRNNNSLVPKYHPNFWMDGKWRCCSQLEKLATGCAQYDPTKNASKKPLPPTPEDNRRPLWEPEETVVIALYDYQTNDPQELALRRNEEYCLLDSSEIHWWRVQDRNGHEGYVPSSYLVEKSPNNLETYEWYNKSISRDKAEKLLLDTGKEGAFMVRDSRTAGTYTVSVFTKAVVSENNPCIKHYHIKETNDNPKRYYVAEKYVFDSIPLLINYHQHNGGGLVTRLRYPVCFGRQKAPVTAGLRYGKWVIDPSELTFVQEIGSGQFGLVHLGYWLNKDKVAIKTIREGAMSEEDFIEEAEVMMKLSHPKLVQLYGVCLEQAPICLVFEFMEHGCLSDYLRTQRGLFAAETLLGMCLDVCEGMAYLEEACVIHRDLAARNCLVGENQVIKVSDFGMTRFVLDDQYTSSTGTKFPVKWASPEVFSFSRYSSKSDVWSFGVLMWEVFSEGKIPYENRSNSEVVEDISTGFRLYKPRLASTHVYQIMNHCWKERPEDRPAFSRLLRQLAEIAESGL

In the case of `O=C(Nc1cccc([C@@H]2CN(c3ncnc4[nH]ccc34)CCN2CCO)c1)Nc1c(F)cccc1N1CCCC1`, the inhibition [1] is reported as 100%, the inhibition [2] is reported as 100% and the inhibition [3] is reported as 54%. It also gave an inhibition [4] of 76%, an inhibition [5] of 56% and an inhibition [6] of 95%. The inhibition [7] was 100%, the inhibition [8] was 88% and the inhibition [9] was 100%. The inhibition [10] was 86%, the inhibition [11] was 100% and the inhibition [12] was 93%. It also gave an inhibition [13] of 82%, an IC50 [14] of 240 nM and an inhibition [15] of 87%. For the same compound, the inhibition [16] was 90%, the inhibition [17] was 70% and the inhibition [18] was 94%. The inhibition [19] was 0.8% and the inhibition [20] was 53%.

In the case of `O=C(Nc1cccc([C@H]2CCCN(c3ncnc4[nH]ccc34)C2)c1)Nc1ccccc1N1CCCC1`, the inhibition [21] is reported as 53%, the inhibition [22] is reported as 70% and the inhibition [23] is reported as 100%. It also gave an inhibition [24] of 4.2%, an inhibition [25] of 12% and an inhibition [26] of 75%. For the same compound, the inhibition [27] was 100%.
